Assay: Aqueous solubility in DI water (visual inspection)
Type: physicochemical
Settings: HCl salt, incubated at 50 or 100 mg/mL
Description: In order to determine the aqueous solubility of the compounds described herein, the HCl salts of the following compounds were incubated at either 50 or 100 mg/mL in DI water and visually inspected for insoluble material.

Q: With `CNCC1CN(C(=O)CCOCCOCCOCCOC)CCN1C(=O)Oc1ccc(CNC(=O)CCCC/C=C/C(C)C)cc1OC` (stereo not shown) [Compound 1, (E)-2-methoxy-4-((8-methylnon-6-enamido)methyl)phenyl 2-((methylamino)methyl)-4-(2,5,8,11-tetraoxatetradecan-14-oyl)piperazine-1-carboxylate] as the compound, how does the solubility read?
A: The solubility was greater than 100 mg/mL.

Source: US10717712B2, “Pegylated prodrugs of phenolic TRPV1 agonists” (CONCENTRIC ANALGESICS, INC., priority 2018, dated 2020)
